Our source for the IC50 values is patent publication US20230019236A1, “PROTEIN TYROSINE PHOSPHATASE INHIBITORS AND METHODS OF USE THEREOF” (Calico Life Sciences LLC, priority 2019, published 2023).

SMILES strings stand for the structures. Bounds are passed on as bounds.

The target in assay [1] is T1, His tagged PTPN2 (TC45) protein (Homo sapiens, UniProt P17706).
T1 construct: made in house
T1 sequence (P17706 with tags, fused parts or gaps isoform P17706-2): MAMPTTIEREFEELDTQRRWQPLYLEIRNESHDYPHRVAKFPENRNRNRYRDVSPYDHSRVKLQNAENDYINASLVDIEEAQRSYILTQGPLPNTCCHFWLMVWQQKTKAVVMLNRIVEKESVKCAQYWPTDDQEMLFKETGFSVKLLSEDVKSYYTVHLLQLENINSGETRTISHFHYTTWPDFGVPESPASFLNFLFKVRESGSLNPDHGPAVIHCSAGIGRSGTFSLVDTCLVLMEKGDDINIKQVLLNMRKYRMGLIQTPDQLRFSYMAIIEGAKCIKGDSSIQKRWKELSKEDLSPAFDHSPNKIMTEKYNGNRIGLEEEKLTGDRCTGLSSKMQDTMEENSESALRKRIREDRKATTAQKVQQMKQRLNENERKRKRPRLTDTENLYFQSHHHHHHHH
Description: Mobility Shift Assay used to determine potency of PTPN2 inhibitors. Type of assay: biochemical. The following applies: Table 2; read-out: PTPN2 MSA IC50. How it is done:
Example 292: Mobility Shift Assay used to determine potency of PTPN2 inhibitors
Compound activity was determined using in house His tagged PTPN2 (TC45) protein (SEQ ID NO: 1) in an in vitro enzymatic reaction. The enzymatic assay used to determine activity was a mobility shift assay using a LabChip EZ Reader by Caliper Life Sciences. The enzymatic reaction was carried out in assay buffer (50 mM HEPES pH 7.5, 1 mM EGTA, 10 mM EDTA, 0.01% Tween® 20, and 2 mM DTT). The compounds were dispensed on a white 384 well ProxiPlate™ (PerkinElmer Catalog#6008289) plate using the Labcyte Echo at varying concentrations (12 point, 1:3 dilution). The enzyme (at 0.5 nM) was incubated with compound for 10 minutes at room temperature. Then the substrate (phosphorylated insulin receptor probe sequence: ((OG488)—{NH—CH2—CH2—O—CH2—CH2—O—CH2—CO)—T—R—D—I—(PY)—E—T—D—Y—Y—R—K—K—NH2) (SEQ ID NO: 2) was added at 2 μM to the plates and incubated for another 10 minutes at room temperature. Finally, a quench solution (water and 4-bromo-3-(2-oxo-2-propoxyethoxy)-5-(3-{[1-(phenylmethanesulfonyl)piperidin-4-yl]amino}phenyl)thiophene-2-carboxylic acid) was added to the plates, which were then run on the EZ Reader (excitation 488 nm, emission 530 nm) to measure % conversion (the amount of phosphorylated substrate which was de-phosphorylated by PTPN2). […] The % inhibition was then used to calculate the IC50 values.

Assay [2] concerns the target T2, His tagged full-length PTP1B protein (Homo sapiens, UniProt P18031).
T2 construct: made in house
T2 sequence (P18031 with tags, fused parts or gaps): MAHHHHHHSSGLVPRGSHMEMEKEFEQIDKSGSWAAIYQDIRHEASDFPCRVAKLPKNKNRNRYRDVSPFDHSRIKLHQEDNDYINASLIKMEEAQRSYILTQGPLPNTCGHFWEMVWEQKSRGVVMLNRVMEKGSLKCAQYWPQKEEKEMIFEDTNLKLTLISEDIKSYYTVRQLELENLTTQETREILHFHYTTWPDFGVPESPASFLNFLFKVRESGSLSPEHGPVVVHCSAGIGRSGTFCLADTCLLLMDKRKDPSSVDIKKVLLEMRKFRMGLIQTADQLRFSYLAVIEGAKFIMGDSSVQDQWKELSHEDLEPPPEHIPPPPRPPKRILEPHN
The assay is described as follows: Mobility Shift Assay (MSA) used to determine potency of PTP1B inhibitors. It is filed as biochemical. The following applies: Table 2. How it is done:
The enzymatic assay used to determine activity is a mobility shift assay using a LabChip EZ Reader by Caliper Life Sciences. The enzymatic reaction was carried out in assay buffer (50 mM HEPES pH 7.5, 1 mM EGTA, 10 mM EDTA, 0.01% Tween® 20, and 2 mM DTT). […] The enzyme (at 0.5 nM) was incubated with compound for 10 minutes at room temperature. […] The % inhibition was then used to calculate the IC50 values.

By IC50 is commonly meant the concentration that inhibits the measured activity by half. In the case of `CC(C)(O)CCNc1ccc2c(F)c(N3CC(=O)NS3(=O)=O)c(O)cc2c1` [Compound 333, 5-{1-fluoro-3-hydroxy-6-[(3-hydroxy-3-methylbutyl)amino]naphthalen-2-yl}-1λ^6,2,5-thiadiazolidine-1,1,3-trione], the IC50 in assay [1] and in assay [2] was 10 to 100 nM throughout.
With `COCCCOc1cc2c(F)c(N3CC(=O)NS3(=O)=O)c(O)cc2cc1O` [Compound 368, 5-[1-fluoro-3,6-dihydroxy-7-(3-methoxypropoxy)naphthalen-2-yl]-1λ^6,2,5-thiadiazolidine-1,1,3-trione], the IC50 in assay [1] and in assay [2] was less than 1 nM throughout.
`O=C1CN(c2c(O)cc3cc(O)c(OCCC4CCCO4)cc3c2F)S(=O)(=O)N1` (centres unmarked) [Compound 360, 5-{1-fluoro-3,6-dihydroxy-7-[2-(oxolan-2-yl)ethoxy]naphthalen-2-yl}-1λ^6,2,5-thiadiazolidine-1,1,3-trione]: the IC50 in assay [1] and in assay [2] was less than 1 nM in each case.
On to `O=C1CN(c2c(O)cc3cc(O)c(OCCC4CCOC4)cc3c2F)S(=O)(=O)N1` (centres unmarked) [Compound 367, 5-{1-fluoro-3,6-dihydroxy-7-[2-(oxolan-3-yl)ethoxy]naphthalen-2-yl}-1λ^6,2,5-thiadiazolidine-1,1,3-trione], for which the IC50 in assay [1] and in assay [2] was less than 1 nM throughout.
With `CC(C)CCNc1ccc2c(F)c(N3CC(=O)NS3(=O)=O)c(O)cc2c1` [Compound 332, 5-{1-fluoro-3-hydroxy-6-[(3-methylbutyl)amino]naphthalen-2-yl}-1λ^6,2,5-thiadiazolidine-1,1,3-trione], the IC50 in assay [1] and in assay [2] was 10 to 100 nM in each case.
For `O=C1CN(c2c(O)cc3cc(NCCCC(F)F)ccc3c2F)S(=O)(=O)N1` [Compound 330, 5-{6-[(4,4-difluorobutyl)amino]-1-fluoro-3-hydroxynaphthalen-2-y}-1λ^6,2,5-thiadiazolidine-1,1,3-trione], the IC50 in assay [1] and in assay [2] was 10 to 100 nM in each case.
Turning to `O=C1CN(c2c(O)cc3cc(OCCCC(F)F)ccc3c2F)S(=O)(=O)N1` [Compound 340, 5-[6-(4,4-difluorobutoxy)-1-fluoro-3-hydroxynaphthalen-2-yl]-1λ^6,2,5-thiadiazolidine-1,1,3-trione], the IC50 in assay [1] and in assay [2] was 10 to 100 nM in each case.
`O=C1CN(c2c(O)cc3ccc(OCCOC(F)(F)F)cc3c2F)S(=O)(=O)N1` [Compound 354, 5-{1-fluoro-3-hydroxy-7-[2-(trifluoromethoxy)ethoxy]naphthalen-2-yl}-1λ^6,2,5-thiadiazolidine-1,1,3-trione]: the IC50 in assay [1] and in assay [2] was 1 to 10 nM in each case.
In the case of `CC(C)(C)OC(=O)NCCOc1ccc2c(F)c(N3CC(=O)NS3(=O)=O)c(O)cc2c1` [Compound 336, tert-butyl (2-{[5-fluoro-7-hydroxy-6-(1,1,4-trioxo-1λ^6,2,5-thiadiazolidin-2-yl)naphthalen-2-yl]oxy}ethyl)carbamate], the IC50 in assay [1] and in assay [2] was 10 to 100 nM in each case.
Consider `N#CCC1(COc2ccc3cc(O)c(N4CC(=O)NS4(=O)=O)c(F)c3c2)CC1` [Compound 130, [1-({[8-fluoro-6-hydroxy-7-(1,1,4-trioxo-1λ^6,2,5-thiadiazolidin-2-yl)naphthalen-2-yl]oxy}methyl)cyclopropyl]acetonitrile], for which the IC50 in assay [1] and in assay [2] was 1 to 10 nM each time.
For the compound `C[C@](O)(CO)CCOc1ccc2cc(O)c(N3CC(=O)NS3(=O)=O)c(F)c2c1` [Compound 343, 5-{7-[(3R)-3,4-dihydroxy-3-methylbutoxy]-1-fluoro-3-hydroxynaphthalen-2-yl}-1λ^6,2,5-thiadiazolidine-1,1,3-trione], the IC50 in assay [1] was less than 1 nM; in assay [2], 1 to 10 nM.
For `NCCOc1ccc2c(F)c(N3CC(=O)NS3(=O)=O)c(O)cc2c1` [Compound 337, 5-[6-(2-aminoethoxy)-1-fluoro-3-hydroxynaphthalen-2-yl]-1λ^6,2,5-thiadiazolidine-1,1,3-trione] the same measures were 10 to 100 nM and 10 to 100 nM.
In the same order, the values of `O=C1CN(c2c(O)cc3ccc(OCCN4CCNC4=O)cc3c2F)S(=O)(=O)N1` [Compound 326, 5-{1-fluoro-3-hydroxy-7-[2-(2-oxoimidazolidin-1-yl)ethoxy]naphthalen-2-yl}-1λ^6,2,5-thiadiazolidine-1,1,3-trione] are less than 1 nM and 10 to 100 nM.
For `C[C@@](O)(CO)CCOc1ccc2cc(O)c(N3CC(=O)NS3(=O)=O)c(F)c2c1` [Compound 341, 5-{7-[(3S)-3,4-dihydroxy-3-methylbutoxy]-1-fluoro-3-hydroxynaphthalen-2-yl}-1λ^6,2,5-thiadiazolidine-1,1,3-trione] the same measures were less than 1 nM and less than 1 nM.
For the compound `C[C@@](O)(CC#N)CCOc1ccc2cc(O)c(N3CC(=O)NS3(=O)=O)c(F)c2c1` [Compound 346, (3R)-5-{[8-fluoro-6-hydroxy-7-(1,1,4-trioxo-1λ^6,2,5-thiadiazolidin-2-yl)naphthalen-2-yl]oxy}-3-hydroxy-3-methylpentanenitrile], the IC50 in assay [1] and in assay [2] was less than 1 nM in each case.
With `O=C1CN(c2c(O)cc3cc(O)c(OCCC4CCCC4)cc3c2F)S(=O)(=O)N1` [Compound 364, 5-[7-(2-cyclopentylethoxy)-1-fluoro-3,6-dihydroxynaphthalen-2-yl]-1λ^6,2,5-thiadiazolidine-1,1,3-trione], the 50% inhibitory concentration (IC50) in assay [1] and in assay [2] was less than 1 nM each time.
For `O=C1CN(c2c(O)cc3ccc(OCCC4CCCC4)cc3c2F)S(=O)(=O)N1` [Compound 351, 5-[7-(2-cyclopentylethoxy)-1-fluoro-3-hydroxynaphthalen-2-yl]-1λ^6,2,5-thiadiazolidine-1,1,3-trione], the IC50 in assay [1] and in assay [2] was less than 1 nM each time.
As for `O=C1CN(c2c(O)cc3ccc(OCCNS(=O)(=O)C4CC4)cc3c2F)S(=O)(=O)N1` [Compound 127, N-(2-{[8-fluoro-6-hydroxy-7-(1,1,4-trioxo-1λ^6,2,5-thiadiazolidin-2-yl)naphthalen-2-yl]oxy}ethyl)cyclopropanesulfonamide], the IC50 in assay [1] and in assay [2] was 1 to 10 nM each time.
As to `CC(C)(CO)CCOc1ccc2cc(O)c(N3CC(=O)NS3(=O)=O)c(F)c2c1` [Compound 342, 5-[1-fluoro-3-hydroxy-7-(4-hydroxy-3,3-dimethylbutoxy)naphthalen-2-yl]-1λ^6,2,5-thiadiazolidine-1,1,3-trione], the IC50 in assay [1] and in assay [2] was less than 1 nM each time.
Consider `O=C1CN(c2c(O)cc3ccc(OCCN4Cc5ccccc5C4)cc3c2F)S(=O)(=O)N1` [Compound 384, 5-{7-[2-(1,3-dihydro-2H-isoindol-2-yl)ethoxy]-1-fluoro-3-hydroxynaphthalen-2-yl}-1λ^6,2,5-thiadiazolidine-1,1,3-trione], for which the IC50 in assay [1] fell in the range of 1 to 10 nM.
For `O=C1CN(c2c(O)cc3ccc(OCCC45CC(C4)C5)cc3c2F)S(=O)(=O)N1` [Compound 378, 5-{7-[2-(bicyclo[11.1.1]pentan-1-yl)ethoxy]-1-fluoro-3-hydroxynaphthalen-2-yl}-1λ^6,2,5-thiadiazolidine-1,1,3-trione], the IC50 in assay [1] is less than 1 nM.
The same measure, in the same setting: for `NCC1(CCOc2ccc3cc(O)c(N4CC(=O)NS4(=O)=O)c(F)c3c2)CCC1` [Compound 379, 5-(7-{2-[1-(aminomethyl)cyclobutyl]ethoxy}-1-fluoro-3-hydroxynaphthalen-2-yl)-1λ^6,2,5-thiadiazolidine-1,1,3-trione] the value was 1 to 10 nM.
